Among the data in patent US10851064B2, “ACSS2 inhibitors and methods of use thereof” (METABOMED LTD., priority 2017, dated 2020) are IC50 values, retold here.

In experiment [1] the target is T1, ACSS2 (Homo sapiens, UniProt Q9NR19). The experiment is described as follows: cell-based.
Experimental: (§1) ACSS2 Cellular Activity Assay (Cellular IC50)
(§2) The cellular activity of ACSS2 was based on tracing the incorporation of carbons from ^13C-Acetate into fatty-acids.
(§3) BT474/MDA-MB-468 cells growing in DMEM+25 mM D-glucose+1 mM sodium pyruvate+10% FBS+2 mM glutamine were plated in 12-well plates at 0.4×10^6 cells/well. The cells were then incubated at CO2 incubator for 24 hrs at hypoxic conditions (1% O2) before treated with compounds. At day 2, the medium was replaced to DMEM medium containing 15 mM Glucose, 1 mM Pyruvate, 0.65 mM Glutamine, 1% Dialyzed serum, 3.5 ug/ml Biotin, 0.2 mM ^13C-Acetate and various concentrations of the compounds. The cells were incubated for 5 hours at CO2 incubator in hypoxic conditions (1% O2). At the end of the 5 hours' incubation, the cells were washed twice with cold PBS, harvested in 1 ml PBS and transfer into V-shaped HPLC glass vials and centrifuge for 10 min at 600 g at 4 C. The supernatant was removed, and the cells' pellets were stored at −80° C. until taken for saponification.
(§4) The cells pellets were resuspended with 0.5 ml of the 90% Methanol, 10% H2O, 0.3M NaOH mixture and incubated at 80° C. for 60 min. Following the incubation, 50 μl formic acid and 0.4 ml hexane were added and the mixture was vortexed for 2 minutes. The vials were left few minutes for phases separation and then 200 μl of the top hexane phase extracted to a new glass vial. The hexane was dried under nitrogen and reconstituted in 100 μl of Methanol:Acetonitrile 5:3 mixture. The solution transferred to Eppendorf tubes, spun down at 17000 G for 20 min and transferred to LC-MS vials.
(§5) The analysis was performed with Thermo Q Exactive mass spectrometer with HESI probe and Dionex Ultimate 3000 UHPLC system. The separations were performed on Phenomenex Kintex 2.6u XB-C18 100A 150×2.10 mm column by injecting 5 ul of each sample. The chromatography started with a linear gradient from 85% to 100% of organic solvent (Methanol:Acetonitrile 1:1) versus 10 mM Ammonium Acetate buffer pH 4.7 for 3.5 minutes, followed by 4.5 minutes of isocratic 100% organic solvent and then 3 minutes of isocratic initial conditions, at a flow rate of 0.3 ul/min. The MS source conditions that were used: capillary temperature 325° C., sheath flow 25, aux flow 15, spray voltage 3.8 kV, aux temperature 300° C. The data collected from Negative ion mode at resolution of 70000 at Full-MS mode in 75-1000 m/z range.
(§6) The analysis of ^13C acetate incorporation into fatty acids (palmitate, myristate and stearate) performed on TraceFinder 3.2.512.0. The negative control areas and ^13C isotopic theoretical natural abundance were subtracted from the samples areas. Total ^13C incorporation for each fatty-acid (palmitate, myristate and stearate) was calculated and presented as percentage of the total amount.
In experiment [2] the target is T1, ACSS2. The experiment is described as follows: cell-based. The source holds these as a separate data set.
Experimental: as §1, §2, §3, §4, §5, §6
Experiment [3] deals with T1, ACSS2. The experiment is described as follows: cell-based. This is another data set of the same source.
Experimental: Testing the inhibitory effect of compounds on the cellular activity of ACSS2 was done by tracing the incorporation of ^13C from ^13C-acetate into fatty-acids in MDA-MB-468 cells under hypoxic conditions of 1% 02. The assay was done for 5 hours in DMEM with 5.5 mM glucose, 1 mM sodium Pyruvate, 0.65 mM Glutamine, 3.5 ug/ml Biotin, 1% dialyzed serum, 0.5 mM 13C-acetate and with different concentrations of the inhibitors. At the end of the incubation, the cells were washed with cold PBS, harvested into glass tubes and undergo saponification. The level of ^13C incorporation into Palmitate was done by LC-MS analysis and the level of inhibition was calculated with PRISM software.
Experiment [4] concerns the target T1, ACSS2. The experiment is described as follows: biochemical.

T1 sequence (Q9NR19 whole entry): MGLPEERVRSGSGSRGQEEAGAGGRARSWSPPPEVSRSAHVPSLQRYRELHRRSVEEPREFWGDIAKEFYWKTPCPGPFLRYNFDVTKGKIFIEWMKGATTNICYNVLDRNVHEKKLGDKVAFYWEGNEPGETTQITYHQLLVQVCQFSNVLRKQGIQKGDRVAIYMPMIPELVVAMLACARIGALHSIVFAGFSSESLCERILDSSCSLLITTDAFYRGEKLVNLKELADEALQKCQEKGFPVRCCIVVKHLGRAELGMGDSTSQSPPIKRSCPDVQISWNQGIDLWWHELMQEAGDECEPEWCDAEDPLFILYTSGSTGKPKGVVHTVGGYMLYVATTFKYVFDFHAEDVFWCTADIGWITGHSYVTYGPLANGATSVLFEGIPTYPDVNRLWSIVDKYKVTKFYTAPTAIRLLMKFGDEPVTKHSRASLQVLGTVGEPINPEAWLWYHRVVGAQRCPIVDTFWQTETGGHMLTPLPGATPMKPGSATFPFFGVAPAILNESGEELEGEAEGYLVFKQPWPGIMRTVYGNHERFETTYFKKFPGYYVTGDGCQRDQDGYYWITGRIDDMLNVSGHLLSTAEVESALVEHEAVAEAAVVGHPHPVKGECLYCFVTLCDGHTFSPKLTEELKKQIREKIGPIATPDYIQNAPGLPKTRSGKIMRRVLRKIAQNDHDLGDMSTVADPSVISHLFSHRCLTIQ

With `CC1=NN(c2ccccc2)C(=O)C1C(=O)Nc1cccc(-c2ccco2)c1` (stereo not shown) [compound 108, N-(3-(furan-2-yl)phenyl)-3-methyl-5-oxo-1-phenyl-4,5-dihydro-1H-pyrazole-4-carboxamide], the half-inhibitory concentration (IC50) was under 100 nM in experiment [1], under 100 nM in experiment [2], 0.5 to 50 nM in experiment [3] and 0.01 to 6 nM in experiment [4].
